Data reported in ChEMBL document CHEMBL3745696, “Synthesis and cytotoxic activity of novel hexahydropyrrolo[2,3-b]indole imidazolium salts” (Bioorg Med Chem Lett, 2016).

How the values were obtained:
[1] = Cytotoxicity against human HL60 cells by MTT assay; type: functional, cell-based; conditions: HL-60
[2] = Cytotoxicity against human SMMC7721 cells by MTT assay; type: functional, cell-based; conditions: SMMC-7721
A549 [3] = test: Cytotoxicity against human A549 cells by MTT assay; type: functional, cell-based
MCF7 [4] = test: Cytotoxicity against human MCF7 cells by MTT assay; type: functional, cell-based
SW480 [5] = test: Cytotoxicity against human SW480 cells by MTT assay; type: functional, cell-based
[6] = Potency index, ratio IC50 of cisplatin to IC50 of compound for cytotoxicity against human SMMC7721 cells; type: functional, SMMC-7721
A549 [7] = test: Potency index, ratio IC50 of cisplatin to IC50 of compound for cytotoxicity against human A549 cells; type: functional
SW480 [8] = test: Potency index, ratio IC50 of cisplatin to IC50 of compound for cytotoxicity against human SW480 cells; type: functional
MCF7 [9] = test: Potency index, ratio IC50 of cisplatin to IC50 of compound for cytotoxicity against human MCF7 cells; type: functional

Cc1cc2c(cc1C)[n+](Cc1ccc3ccccc3c1)cn2CC(=O)N1CCC2(C)c3ccccc3N(C)C12 (centres undefined)
IC50 [1]: 1.35 µM | IC50 [2]: 4.03 µM | IC50 (A549 [3]): 6.18 µM | IC50 (MCF7 [4]): 1.84 µM | IC50 (SW480 [5]): 4.54 µM

Cc1cc2c(cc1C)[n+](Cc1ccccc1Br)cn2CC(=O)N1CCC2(C)c3ccccc3N(Cc3ccccc3)C12.[Br-] (centres undefined)
IC50 [1]: 1.27 µM | IC50 [2]: 1.72 µM | IC50 (A549 [3]): 2.68 µM | IC50 (MCF7 [4]): 1.78 µM | IC50 (SW480 [5]): 1.44 µM | Ratio IC50 [6]: 4.7 | Ratio IC50 (A549 [7]): 2.6 | Ratio IC50 (SW480 [8]): 6.2

Cc1n(CC(=O)N2CCC3(C)c4ccccc4N(Cc4ccccc4)C23)c2ccccc2[n+]1Cc1ccc2ccccc2c1.[Br-] (centres undefined)
IC50 [1]: 1.38 µM | IC50 [2]: 1.8 µM | IC50 (A549 [3]): 6.26 µM | IC50 (MCF7 [4]): 1.46 µM | IC50 (SW480 [5]): 1.64 µM | Ratio IC50 (MCF7 [9]): 7.2

Cc1ccc(C[n+]2cn(CC(=O)N3CCC4(C)c5ccccc5N(C)C34)c3cc(C)c(C)cc32)cc1 (centres undefined)
IC50 [1]: 1.52 µM | IC50 [2]: 4.52 µM | IC50 (A549 [3]): 10.5 µM | IC50 (MCF7 [4]): 5.79 µM | IC50 (SW480 [5]): 7.57 µM

c1c[nH]cn1 [IMIDAZOLE]
IC50 [1]: > 20 µM | IC50 [2]: > 20 µM | IC50 (A549 [3]): > 20 µM | IC50 (MCF7 [4]): > 20 µM | IC50 (SW480 [5]): > 20 µM
